This is an account of results in patent US20220017520A1, “MACROCYCLIC COMPOUND AS CDK INHIBITOR, PREPARATION METHOD THEREFOR, AND USE THEREOF IN MEDICINE” (Keythera (Suzhou) Pharmaceuticals Co. Ltd., priority 2018, published 2022).

One test deals with neointima formation. Particulars: rats; cited from earlier work.
A further test deals with metastatic breast cancer. Particulars: drug alone, patients with hormone receptor-positive metastatic breast cancer, Phase I; cited from earlier work.
In another test the test system is MCF-7 cells. The test is described as follows: In vitro cell proliferation assay by BrdU method. The test is classed as cell-based. Particulars: 72 hours, 10% FBS. The procedure:
In Vitro Cell Inhibitory Activity of the Compound of the Present Invention
Experimental method: Cell proliferation assay was carried out by BrdU method (BrdU cell proliferation assay kit, Cell Signaling Technology Co.)
Preparation of gradient dilution solution of test compound: the 10 mM stock solution of test compound was subjected to 4-fold serial gradient dilution with DMSO to obtain solutions with a concentration of 2.5 mM, […], respectively. 2 μL of DMSO-diluted compound was added to 198 μL of culture medium containing 10% FBS to obtain 10-fold test compound, wherein the maximum concentration of the test compound was 10 μM, the DMSO concentration was 1%, with a total of 7 concentration gradients.
MCF-7 culture medium: DMEM+10% FBS+0.01 mg/mL insulin
(1) Cells grown to 80% (in exponential growth phase) were digested with pancreatin, and were collected by centrifugation. MDA-MB-435S cells and U87MG cells were re-suspended in a FBS-free culture medium, counted and inoculated to a 96-well plate; MDA-MB-435S cells were inoculated at 3000 cells/well/81 μL, and U87MG cells were inoculated at 4000 cells/well/81 μL. MCF-7 cells were resuspended in a culture medium containing 1% FBS, counted and inoculated to a 96-well plate at 4000 cell/well/82 μL. The cells were incubated in a cell incubator at 37° C.
(2) After 24 hours of incubation, FBS (9 μL) was added to each well of the MDA-MB-435S cells and U87MG cells, and 8 μL of FBS was added to each well of the MCF-7 cells, so as to obtain a final FBS concentration of 10%.
(3) A different concentration of 10-fold test compound (10 μL) was added to each well to obtain a final concentration of test compound of 10 μM, 2.5 μM, 625 nM, 156 nM, 39 nM, 9.8 nM or 2.5 nM, respectively, with 3 repeated wells/group, and the cells were incubated at 37° C. for 72 hours.
(4) 10-fold BrdU solution (10 μL) was added to each well, and the cells were incubated in the incubator for 4 hours, followed by discarding the culture medium.
(5) Fixing/denaturation solution (10 μL) was added to each well, and the cells were incubated at room temperature for 30 minutes, followed by discarding the solution.
(6) 1-fold detection antibody solution (100 μL) was added to each well, the cells were incubated at room temperature for 1 hour, followed by discarding the solution, and the cells were washed with 1-fold washing solution (200 μL/well) three times.
(7) 1-fold HRP-labelled secondary antibody solution (100 μL) was added to each well, the cells were incubated at room temperature for 30 minutes, followed by discarding the solution, and the cells were washed with 1-fold washing solution (200 μL/well) three times.
(8) TMB substrate solution (100 μL) was added to each well, and the cells were incubated at room temperature for 30 minutes.
(9) Stop solution (100 μL) was added to each well, and the OD value at 450 nm was measured by a microplate reader.
1) Cell survival rate (%)=(ODtest compound−ODblank control)/(ODnormal cell control−ODblank control)×100%,
2) The data was processed by GraphPad Prism 5 software to obtain the curve and IC50 values.

As to `COc1ccc(CNc2nc(N(CCO)CCO)nc3c2ncn3C(C)C)cc1` [CVT-313], in the test on neointima formation, the “inhibition of neointima formation” value is “greater than 80%”.
By IC50 is commonly meant the concentration at which inhibition is half-maximal. Lower therefore signals higher potency. “Abemaciclib [LY2834219, reference compound]”: the clinical benefit rate in the test with metastatic breast cancer is on record as 61%. In the test on MCF-7 cells, this molecule yielded an IC50 of 120 nM.
